The test system of data set [1] is uterine fibroids. The note with it: animal models; cited from earlier work.
Data set [2] relates to human uterine fibroid cells. The settings on record: in vitro; cited from earlier work.
Data set [3] concerns fibronectin release in cultured fibroblasts. Briefly: Fibronectin release in TGF-β1-stimulated fibroblasts, western blot. In kind it is cell-based, human. The note with it: Phase I; 18 days culture, 24 h TGF-β1 10 ng/ml, then 24 h treatment; vitamin D3 0.005 μg/ml, EGCG 0.03 mg/ml; FIG. 1. From the text:
Anti-fibrotic properties of epigallocatechin gallate (EGCG) and vitamin D3 (alone or in combination) have been preliminary tested in human normal fibroblasts in 2D cultures. Human normal fibroblasts used in this experiment are Primary cell cultures. To discard any effect on fibroblast viability, proliferation and apoptosis were also investigated. Fibroblasts culture: DMEM, 10% FBS, 1% L-Glu, 1% Pen/strep for 18 days; Fibroblasts were allowed to grow in the above fibroblast culture for 18 days until reaching 50% confluence. Then, the fibrotic process was fostered by adding 10 ng/ml TGF-β1 (Peprotech, cat no. #100-21-10UG). […]
(§1) Fibronectin and collagen release were both measured in western blot for assessing the anti-fibrotic effect. […]
(§2) Fibronectin and collagen release from fibroblasts were analyzed at 24 hours after addition of EGCG or vitamin D3 in previously stimulated fibroblast, as described above. […]
Data are reported in FIGS. 3 A-B and 4 A-B and expressed as fold-decrease of OD-Units in respect to the control value, which was obtained for fibroblasts after 24 hours of stimulation with TGF-β1 (e.g. a decrease of 50% between two measurements would be referred to a “half-fold change”). Fold change is a measure describing how much a quantity changes between an original and a subsequent measurement. […]
In general terms: Immunoblotting shows a protein as a band on a membrane.

Data set [4] relates to collagen release in cultured fibroblasts. Put plainly: Collagen release in TGF-β1-stimulated fibroblasts, western blot. The note with it: Phase I, 18 days culture, 24 h TGF-β1 10 ng/ml, then 24 h treatment, vitamin D3 0.005 μg/ml, EGCG 0.03 mg/ml, FIG. 2. The class given is cell-based, human.
Description: (§3) Anti-fibrotic properties of epigallocatechin gallate (EGCG) and vitamin D3 (alone or in combination) have been preliminary tested in human normal fibroblasts in 2D cultures. Human normal fibroblasts used in this experiment are Primary cell cultures. To discard any effect on fibroblast viability, proliferation and apoptosis were also investigated. Fibroblasts culture: DMEM, 10% FBS, 1% L-Glu, 1% Pen/strep for 18 days; Fibroblasts were allowed to grow in the above fibroblast culture for 18 days until reaching 50% confluence. Then, the fibrotic process was fostered by adding 10 ng/ml TGF-β1 (Peprotech, cat no. #100-21-10UG). 24 hours after addition of TGF-β1, fibroblasts were thoroughly washed with PBS, fresh fibroblast culture medium and the below formulas were added. Fibroblasts were then allowed to grow for an additional 24 hours.
Vitamin D3 (cholecalciferol, CAS-No. 67-97-0): 0.005 μg/ml in DMSO. Vitamin D3 was dissolved in DMSO and after that further dilutions were made in PBS. Essentially, the cells receive the same “dose” of DMSO, this allows a clean comparison of the test. In this case, DMSO 1:10000 was used;
EGCG (GREEN TEA DRY EXTRACT 95% POLYPHENOLS; CAS-No. 84650-60-2): 0.03 mg/ml in H2O;
combined treatment: EGCG 0.03 mg/ml+vitamin D3 0.005 μg/ml;
control: vehicle only (DMSO);
as §1, §2
Data are reported in FIGS. 3 A-B and 4 A-B and expressed as fold-decrease of OD-Units in respect to the control value, which was obtained for fibroblasts after 24 hours of stimulation with TGF-β1 (e.g. a decrease of 50% between two measurements would be referred to a “half-fold change”). Fold change is a measure describing how much a quantity changes between an original and a subsequent measurement. It is defined as the ratio between the two quantities; for quantities A and B, then the fold change of B with respect to A is B/A.

Data set [5] relates to uterine fibroids. The note with it: women with uterine fibroids after treatment with EGCG; cited from earlier work.
Data set [6] relates to human normal fibroblasts. Briefly: Fibroblast proliferation, viability and morphology. The settings on record: Phase I; vitamin D3 0.005 μg/ml, EGCG 0.03 mg/ml; data not shown.
Description: as §3

Data set [7] concerns uterine fibroid tumors. The note with it: mice; cited from earlier work.

As to `C=C1/C(=C\C=C2/CCC[C@]3(C)[C@@H]([C@H](C)CCCC(C)(C)O)CC[C@@H]23)C[C@@H](O)C[C@@H]1O` [1,25-dihydroxyvitamin D], the “size of uterine fibroids / uterine fibroid tumor growth” value in data set [1] is listed as “decreases the size”. The “uterine fibroid cell proliferation” value in data set [2] was “inhibits”.

Regarding `O=C(O[C@@H]1Cc2c(O)cc(O)cc2O[C@@H]1c1cc(O)c(O)c(O)c1)c1cc(O)c(O)c(O)c1` [EGCG, epigallocatechin gallate], the “fibronectin release (production)” value in data set [3] was “significantly reduces”. The “collagen release (production)” value in data set [4] is “significantly reduces”. The “reduction in the total fibroid volume” value in data set [5] is on record as 32.6%. Further, in data set [2], the “apoptosis in human uterine fibroid cells” value is “induces apoptosis” and the “uterine fibroid cell proliferation” value is given as “inhibits proliferation”. Also, in data set [6], the fibroblasts proliferation rate result is “does not significantly modify” and the fibroblasts viability entry is recorded as “does not significantly modify”. In addition, the “volume of uterine fibroid tumors” value in data set [7] is listed as “reduces the volume”.

For the compound `C=C1CC[C@H](O)C/C1=C/C=C1\CCC[C@]2(C)[C@@H]([C@H](C)CCCC(C)C)CC[C@@H]12` [Vitamin D3, cholecalciferol], the “fibronectin release (production)” value in data set [3] was “slightly increases”. Further, the “collagen release (production)” value in data set [4] is “significantly reducing”. Also, the “collagen release (production)” value in data set [4] (listed as Vitamin D) is “reduces”. The “size of uterine fibroids / uterine fibroid tumor growth” value in data set [1] is reported as “reduces”. In addition, the “uterine fibroid cell proliferation” value in data set [2] is “reduces”. Also, in data set [6], the fibroblasts proliferation rate entry is listed as “does not significantly modify” and the fibroblasts viability result is “does not significantly modify”.

These data come from US20220160734A1, “TREATMENT OF FIBROIDS WITH VITAMIN D AND AN AGENT SUCH AS EPIGALLOCATECHIN GALLATE (EGCG)” (LO.LI. PHARMA S.R.L., priority 2019, published 2022).
